The text below walks through data of patent publication US20220370440A1 (Lead Discovery Center GmbH, priority 2018, published 2022).

The target of test [1] is EGFR Exon 20 INSNPH Ba/F3 (Homo sapiens, UniProt P00533, DUP771-773, cells depend on it). Nature of the test: EGFR Exon 20 INSNPH Ba/F3 CellTiter-Glo. It counts as cell-based. Particulars: 72 h, read-out: EGFR Exon 20 INSNPH Ba/F3 CTG IC50. The method, then:
(§1) 2. Measurement of Cellular Activity
(§2) The CellTiter-Glo Luminescent Cell Viability Assay (Promega) is a homogeneous method of determining the number of viable cells in culture. It is based on quantification of ATP, indicating the presence of metabolically active cells. Cells are seeded on day 1 at cell numbers that assure assay linearity and optimal signal intensity. After incubation for 24 h in humidified chambers at 37° C. and 5% CO2, compounds in DMSO are added at different concentrations. Cells are further incubated for 72 h at 37° C. and 5% CO2. Cells treated with the compound vehicle DMSO are used as positive controls and cells treated with 10 μM Staurosporine serve as negative controls. At day 5 the CellTiter Glo Reagent is prepared according to the instructions of the kit (Promega Inc.): Reagent is mixed 1:1 with cell culture medium. Thereon, mixture and assay plates are equilibrated at room temperature for 20 min. Equal volumes of the reagent-medium-mixture is added to the volume of culture medium present in each well. The plates are mixed at ˜200 rpm for 2 minutes on an orbital shaker. The microplates are then incubated at room temperature for 10 minutes for stabilization of the luminescent signal. Following incubation the luminescence is recorded on a Victor microplate reader (Perkin Elmer) using a 200 ms integration time. The data is then analyzed with Excel using the XLFIT Plugin (dose response Fit 205) for IC50-determination. As quality control the Z′-factor is calculated from 16 positive and negative control values. Only assay results showing a Z′-factor ≥0.5 are used for further analysis.
(§3) Inhibition is indicated as IC50 [nM] (“−”=not measured). Compounds having an activity designated as “A” provided an IC50≤100 nM; compounds having an activity designated as “B” provided an 100 nM<IC50≤500 nM; compounds having an activity designated as “C” provided an 500 nM<IC50≤1000 nM; compounds having an activity designated as “D” provided an 1000 nM<IC50≤10000 nM; and compounds having an activity designated as “E” provided an IC50>10000 nM.

The target of the next test is T1, HER2 INS YVMA (Homo sapiens, UniProt P04626, INS775YVMA).
T1 construct: purchased DPF
T1 sequence (P04626 with tags, fused parts or gaps INS775YVMA): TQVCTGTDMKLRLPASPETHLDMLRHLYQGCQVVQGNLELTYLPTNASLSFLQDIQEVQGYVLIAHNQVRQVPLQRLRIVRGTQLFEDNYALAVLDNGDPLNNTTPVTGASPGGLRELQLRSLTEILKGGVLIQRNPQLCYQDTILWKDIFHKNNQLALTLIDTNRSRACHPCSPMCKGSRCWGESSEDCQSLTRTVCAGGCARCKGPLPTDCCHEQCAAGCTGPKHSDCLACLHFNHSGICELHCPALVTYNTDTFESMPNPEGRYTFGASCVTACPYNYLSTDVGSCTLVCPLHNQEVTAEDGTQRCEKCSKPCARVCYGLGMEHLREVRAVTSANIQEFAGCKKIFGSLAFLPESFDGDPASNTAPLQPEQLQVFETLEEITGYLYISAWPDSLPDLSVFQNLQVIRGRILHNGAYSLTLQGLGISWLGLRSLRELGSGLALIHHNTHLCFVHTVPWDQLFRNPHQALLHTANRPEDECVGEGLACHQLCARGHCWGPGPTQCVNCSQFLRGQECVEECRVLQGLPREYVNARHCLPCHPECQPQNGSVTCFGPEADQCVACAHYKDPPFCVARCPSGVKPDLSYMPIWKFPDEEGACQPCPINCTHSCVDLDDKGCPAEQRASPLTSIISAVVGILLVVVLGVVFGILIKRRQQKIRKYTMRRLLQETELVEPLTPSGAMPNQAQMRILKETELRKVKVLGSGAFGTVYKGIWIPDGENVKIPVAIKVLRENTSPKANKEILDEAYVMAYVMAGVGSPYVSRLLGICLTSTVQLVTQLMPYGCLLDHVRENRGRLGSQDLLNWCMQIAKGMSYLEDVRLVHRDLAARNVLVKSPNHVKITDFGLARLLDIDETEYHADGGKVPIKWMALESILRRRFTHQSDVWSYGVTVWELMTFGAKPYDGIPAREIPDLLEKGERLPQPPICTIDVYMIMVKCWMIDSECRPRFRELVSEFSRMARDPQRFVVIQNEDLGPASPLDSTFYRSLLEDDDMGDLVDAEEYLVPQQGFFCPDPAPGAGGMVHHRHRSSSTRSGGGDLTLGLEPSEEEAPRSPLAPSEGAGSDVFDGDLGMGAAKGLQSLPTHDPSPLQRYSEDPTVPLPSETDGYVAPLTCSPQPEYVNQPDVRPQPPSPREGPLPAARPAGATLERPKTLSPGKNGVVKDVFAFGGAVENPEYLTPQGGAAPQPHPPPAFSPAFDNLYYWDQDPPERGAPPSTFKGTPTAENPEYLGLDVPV
In words: Lance Kinase Activity Assay, HER2 INS YVMA (Her2 Exon 20 INSYVMA Lance). Type of test: biochemical. The method, then: 1. Measurement of HER2 INS YVMA Kinase Activity
This protocol describes how the Lance Kinase Activity Assay was performed to determine IC50 values of compounds of general formula (I) against HER2 INS YVMA. The principle behind this enzymatic assay is based upon the phosphorylation of the Ulight-peptide substrate. It is detected by using a specific EU-labeled anti-phospho peptide antibody. The binding of the Eu labeled anti-phospho peptide antibody to the phosphorylated ULight labeled peptide gives rise to a FRET-signal.
Binding of an inhibitor to the kinase prevents phosphorylation of the Ulight-substrate, resulting in a loss of FRET. In table 2 is summarized the relevant information for the LANCE assay.
The compounds of general formula (I) summarized in Table 3 were serial diluted from a 10 mM DMSO stock solution 1:3 over 8 steps in a total volume of 20 μl.
For every sample, 8 μl of kinase-substrate mix was transferred into a suitable assay plate (e.g. Corning #3673). Compound was added via pintool transfer (10 nl/well) using a Biomek FX robot (BeckmanCoulter). Reaction was started by addition of 2 μl ATP working solution and mixed using variomag teleshaker (Thermo Fischer Scientific). After 1 h incubation at room temperature the reaction was stopped with 10 μl detection mix containing the Eu-labeled phosphospecific antibody and 10 mM EDTA. After a second incubation period of 1 h at room temperature the FRET signal was measured at 340 nm excitation, 665 nm and 615 nm emission (for the ULight-substrate and Eu-AB, respectively) with an Envision spectrophotometer (Perkin Elmer, Waltham, Mass., USA) with 50 μs delay and 300 μs integration time. IC50 values were determined from the sigmoidal dose response curves with the software Quattro Workflow (Quattro GmbH, Munich, Germany).

A further test concerns the target EGFR wt (Homo sapiens, UniProt P00533). Nature of the test: EGFR wt Lance assay. Type of test: biochemical. The method, then: (§4) Inhibition is indicated as […] [nM] (“−”=not measured). Compounds having an activity designated as “A” provided an IC50≤100 nM; compounds having an activity designated as “B” provided an 100 nM<IC50≤500 nM; compounds having an activity designated as “C” provided an 500 nM<IC50≤1000 nM; compounds having an activity designated as “D” provided an 1000 nM<IC50≤100000 nM; and compounds having an activity designated as “E” provided an IC50>10000 nM.

The next test has as its target EGFR T790ML858R (Homo sapiens, UniProt P00533, L858R/T790M). Nature of the test: EGFR T790ML858R Lance assay. Type of test: biochemical. The method, then: as §4
The test system of a further test is H1975. In words: H1975 CellTiter-Glo. It counts as cell-based. Particulars: Homo sapiens, NCI-H1975; 72 h compound incubation; read-out: H1975 CTG IC50. The method, then: as §1, §2, §4
For test [2], the target named is Her2 Exon 20 INSYVMA Ba/F3 (Homo sapiens, UniProt P04626, DUP772-775, cells depend on it). In words: Her2 Exon 20 INSYVMA Ba/F3 CellTiter-Glo. It counts as cell-based. Particulars: 72 h, read-out: Her2 Exon 20 INSYVMA Ba/F3 CTG IC50. The method, then:
as §1, §2, §3

Read-outs that look alike come from different tables or passages of the source.

Sequence of Her2 Exon 20 INSYVMA Ba/F3 (P04626 with tags, fused parts or gaps DUP772-775): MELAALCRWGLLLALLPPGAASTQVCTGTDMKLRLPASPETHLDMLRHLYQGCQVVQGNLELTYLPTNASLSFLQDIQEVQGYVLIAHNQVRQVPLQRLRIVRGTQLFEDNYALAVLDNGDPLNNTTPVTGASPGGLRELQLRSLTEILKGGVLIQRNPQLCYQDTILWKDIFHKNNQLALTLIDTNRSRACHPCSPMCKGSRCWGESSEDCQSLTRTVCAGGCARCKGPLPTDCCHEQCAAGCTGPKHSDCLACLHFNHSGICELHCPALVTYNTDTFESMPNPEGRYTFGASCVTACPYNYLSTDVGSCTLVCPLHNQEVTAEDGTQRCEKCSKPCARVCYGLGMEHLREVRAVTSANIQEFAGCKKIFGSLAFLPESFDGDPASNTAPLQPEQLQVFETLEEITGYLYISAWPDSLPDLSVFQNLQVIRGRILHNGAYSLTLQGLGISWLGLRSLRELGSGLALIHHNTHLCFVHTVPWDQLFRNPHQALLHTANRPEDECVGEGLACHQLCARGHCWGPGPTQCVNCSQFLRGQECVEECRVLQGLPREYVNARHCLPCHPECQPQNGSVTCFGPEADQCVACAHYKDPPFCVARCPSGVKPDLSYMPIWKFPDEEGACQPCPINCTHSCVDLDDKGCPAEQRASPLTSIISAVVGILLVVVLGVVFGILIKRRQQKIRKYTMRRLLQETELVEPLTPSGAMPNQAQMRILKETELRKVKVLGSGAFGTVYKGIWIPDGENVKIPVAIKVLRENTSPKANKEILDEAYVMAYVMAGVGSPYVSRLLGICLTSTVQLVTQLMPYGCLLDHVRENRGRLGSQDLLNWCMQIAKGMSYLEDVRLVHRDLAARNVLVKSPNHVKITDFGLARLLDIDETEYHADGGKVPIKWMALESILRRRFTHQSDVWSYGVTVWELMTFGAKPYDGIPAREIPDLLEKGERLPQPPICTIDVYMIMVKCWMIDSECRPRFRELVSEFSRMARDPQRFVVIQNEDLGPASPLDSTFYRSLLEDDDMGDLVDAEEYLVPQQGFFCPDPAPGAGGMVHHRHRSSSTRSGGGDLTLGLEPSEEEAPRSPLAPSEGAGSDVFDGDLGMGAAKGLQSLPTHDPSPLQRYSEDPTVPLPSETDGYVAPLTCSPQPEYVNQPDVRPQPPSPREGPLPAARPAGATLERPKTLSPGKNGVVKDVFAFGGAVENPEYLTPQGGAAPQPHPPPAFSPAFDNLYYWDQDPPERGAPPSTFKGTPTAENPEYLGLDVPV
Sequence of EGFR wt (P00533 25-1210): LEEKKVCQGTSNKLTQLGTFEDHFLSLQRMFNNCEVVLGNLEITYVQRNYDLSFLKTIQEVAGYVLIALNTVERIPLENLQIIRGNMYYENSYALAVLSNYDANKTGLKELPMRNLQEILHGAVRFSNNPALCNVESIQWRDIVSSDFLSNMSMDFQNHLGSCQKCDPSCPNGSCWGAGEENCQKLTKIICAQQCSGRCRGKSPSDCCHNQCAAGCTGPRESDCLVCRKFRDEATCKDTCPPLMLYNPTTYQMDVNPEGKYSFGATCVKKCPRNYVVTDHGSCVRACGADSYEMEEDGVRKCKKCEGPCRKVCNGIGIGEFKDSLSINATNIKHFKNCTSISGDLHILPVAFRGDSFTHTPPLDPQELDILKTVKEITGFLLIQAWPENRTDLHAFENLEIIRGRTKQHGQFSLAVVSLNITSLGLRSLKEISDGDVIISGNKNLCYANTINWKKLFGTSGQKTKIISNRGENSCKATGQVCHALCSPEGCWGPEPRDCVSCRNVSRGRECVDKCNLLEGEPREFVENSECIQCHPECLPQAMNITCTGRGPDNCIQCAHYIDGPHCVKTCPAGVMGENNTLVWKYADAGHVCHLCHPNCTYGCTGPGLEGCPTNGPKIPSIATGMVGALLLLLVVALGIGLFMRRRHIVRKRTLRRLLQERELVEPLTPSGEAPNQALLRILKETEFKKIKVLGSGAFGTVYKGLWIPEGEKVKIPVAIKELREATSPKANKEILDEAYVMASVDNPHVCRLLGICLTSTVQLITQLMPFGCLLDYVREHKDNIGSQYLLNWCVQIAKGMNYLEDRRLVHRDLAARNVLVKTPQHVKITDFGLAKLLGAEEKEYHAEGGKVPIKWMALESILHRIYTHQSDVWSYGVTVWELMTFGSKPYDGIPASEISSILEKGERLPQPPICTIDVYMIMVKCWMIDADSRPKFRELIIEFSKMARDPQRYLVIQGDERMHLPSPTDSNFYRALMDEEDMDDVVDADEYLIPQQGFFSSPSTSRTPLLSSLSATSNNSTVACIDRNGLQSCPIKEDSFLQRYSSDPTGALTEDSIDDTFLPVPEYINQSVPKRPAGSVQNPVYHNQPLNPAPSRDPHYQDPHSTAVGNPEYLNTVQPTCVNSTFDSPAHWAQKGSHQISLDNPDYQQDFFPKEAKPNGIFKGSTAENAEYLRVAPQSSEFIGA
Sequence of EGFR Exon 20 INSNPH Ba/F3 (P00533 with tags, fused parts or gaps DUP771-773): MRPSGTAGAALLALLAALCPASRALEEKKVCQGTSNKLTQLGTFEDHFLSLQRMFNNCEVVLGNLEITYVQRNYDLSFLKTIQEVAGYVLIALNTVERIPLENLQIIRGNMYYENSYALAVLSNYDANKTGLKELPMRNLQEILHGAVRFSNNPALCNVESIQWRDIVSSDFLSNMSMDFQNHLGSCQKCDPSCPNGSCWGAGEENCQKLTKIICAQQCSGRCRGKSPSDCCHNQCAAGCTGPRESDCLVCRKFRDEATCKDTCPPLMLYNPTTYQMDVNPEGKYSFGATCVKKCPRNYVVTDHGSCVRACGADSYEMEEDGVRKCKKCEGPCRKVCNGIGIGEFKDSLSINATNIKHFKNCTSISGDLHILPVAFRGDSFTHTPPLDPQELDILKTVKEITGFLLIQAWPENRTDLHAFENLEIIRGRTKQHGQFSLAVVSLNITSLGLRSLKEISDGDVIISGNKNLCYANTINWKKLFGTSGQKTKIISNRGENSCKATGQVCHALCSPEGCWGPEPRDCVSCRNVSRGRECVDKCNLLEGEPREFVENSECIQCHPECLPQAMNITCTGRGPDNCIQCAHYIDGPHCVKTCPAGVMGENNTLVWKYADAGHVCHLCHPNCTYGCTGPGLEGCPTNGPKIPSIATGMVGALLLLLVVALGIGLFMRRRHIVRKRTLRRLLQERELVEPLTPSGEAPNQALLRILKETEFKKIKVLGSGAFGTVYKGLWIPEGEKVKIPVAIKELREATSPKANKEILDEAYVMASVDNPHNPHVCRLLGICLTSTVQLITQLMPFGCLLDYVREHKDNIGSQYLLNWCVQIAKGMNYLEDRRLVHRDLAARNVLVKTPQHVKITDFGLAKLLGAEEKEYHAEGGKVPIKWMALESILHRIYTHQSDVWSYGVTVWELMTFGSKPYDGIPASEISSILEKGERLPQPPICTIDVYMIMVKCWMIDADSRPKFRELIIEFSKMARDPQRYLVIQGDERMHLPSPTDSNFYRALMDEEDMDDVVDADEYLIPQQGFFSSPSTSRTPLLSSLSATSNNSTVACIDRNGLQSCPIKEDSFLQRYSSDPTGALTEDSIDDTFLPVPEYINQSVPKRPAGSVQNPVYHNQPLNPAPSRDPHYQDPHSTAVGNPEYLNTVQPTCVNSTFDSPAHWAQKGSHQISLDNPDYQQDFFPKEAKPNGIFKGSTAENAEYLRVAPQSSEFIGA

Turning to `C=CC(=O)Nc1cc(-c2c(-c3ccc(Cl)c(C(=O)N4CCOCC4)c3)[nH]c3nccc(Cl)c23)ccc1C` [Example 34, N-(5-(4-chloro-2-(4-chloro-3-(morpholine-4-carbonyl)phenyl)-1H-pyrrolo[2,3-b]pyridin-3-yl)-2-methylphenyl)acrylamide], the GI50 in test [1] (CellTiter-Glo) and in test [2] (CellTiter-Glo) was 1000 to 10000 nM each time. Further, the IC50 at HER2 INS YVMA (biochemical Lance assay) was in the range of 1000 to 10000 nM; against EGFR wt, 1000 to 100000 nM; against EGFR T790ML858R it was 100 to 500 nM; with H1975, 500 to 1000 nM.

Turning to `C=CC(=O)Nc1cc(-c2c(-c3ccc(N4CCN(C)CC4)cc3)[nH]c3nccc(Cl)c23)ccc1C` [drawing 711], the results for the GI50 in test [1] and in test [2] were 35 nM and 64 nM, respectively. Besides, at HER2 INS YVMA, the 50% inhibitory concentration (IC50) is 5 nM.

Turning to `C=CC(=O)Nc1cc(-c2c(-c3ccc(F)c(C(=O)N4CCOCC4)c3)[nH]c3nccc(Cl)c23)ccc1C` [Example 33, N-(5-(4-chloro-2-(4-fluoro-3-(morpholine-4-carbonyl)phenyl)-1H-pyrrolo[2,3-b]pyridin-3-yl)-2-methylphenyl)acrylamide], the GI50 in test [1] (CellTiter-Glo) and in test [2] (CellTiter-Glo) was 1000 to 10000 nM in each case. The concentration for half-maximal inhibition (IC50) lay in the range of 1000 to 10000 nM at HER2 INS YVMA (biochemical Lance assay), 500 to 1000 nM on EGFR wt, 100 to 500 nM against EGFR T790ML858R and 100 to 500 nM in the test with H1975.

In the case of `C=CC(=O)Nc1cc(-c2c(-c3cccc(C(=O)N4CCC5(CC4)CN(C)C5)c3)[nH]c3nccc(Cl)c23)ccc1C` [Example 53, N-(5-(4-chloro-2-(3-(2-methyl-2,7-diazaspiro[3.5]nonane-7-carbonyl)phenyl)-1H-pyrrolo[2,3-b]pyridin-3-yl)-2-methylphenyl)acrylamide], the GI50 in test [1] (CellTiter-Glo) and in test [2] (CellTiter-Glo) was 1000 to 10000 nM each time. The IC50 against HER2 INS YVMA (biochemical Lance assay) is at most 100 nM; against EGFR wt, at most 100 nM; at EGFR T790ML858R, at most 100 nM; in the test on H1975, 100 to 500 nM.

With `C=CC(=O)Nc1cc(-c2c(-c3cccc(C(=O)N4CCC5(CCNC5=O)CC4)c3)[nH]c3nccc(Cl)c23)ccc1C` [Example 46, N-(5-(4-chloro-2-(3-(1-oxo-2,8-diazaspiro[4.5]decane-8-carbonyl)phenyl)-1H-pyrrolo[2,3-b]pyridin-3-yl)-2-methylphenyl)acrylamide], the GI50 in test [1] (CellTiter-Glo) and in test [2] (CellTiter-Glo) was 1000 to 10000 nM in each case. Besides, the concentration for half-maximal inhibition (IC50) against HER2 INS YVMA (biochemical Lance assay) is 1000 to 10000 nM; at EGFR wt, 500 to 1000 nM; on EGFR T790ML858R, at most 100 nM; with H1975, 1000 to 100000 nM.

For the compound `C=CC(=O)Nc1cc(-c2c(-c3cccc(C(=O)N4CCN(C(C)=O)CC4)c3)[nH]c3nccc(Cl)c23)ccc1C` [Example 52, N-(5-(2-(3-(4-acetylpiperazine-1-carbonyl)phenyl)-4-chloro-1H-pyrrolo[2,3-b]pyridin-3-yl)-2-methylphenyl)acrylamide], the GI50 in test [1] (CellTiter-Glo) and in test [2] (CellTiter-Glo) was 1000 to 10000 nM each time. The half-maximal inhibitory concentration (IC50) is 100 to 500 nM against HER2 INS YVMA (biochemical Lance assay), 100 to 500 nM on EGFR wt, at most 100 nM at EGFR T790ML858R and 100 to 500 nM with H1975.

As to `C=CC(=O)Nc1cc(-c2c(-c3cccc(C(=O)NCCCN(C)Cc4ccccc4)c3)[nH]c3nccc(Cl)c23)ccc1C` [Example 51, 3-(3-(3-acrylamido-4-methylphenyl)-4-chloro-1H-pyrrolo[2,3-b]pyridin-2-yl)-N-(3-(benzyl(methyl)amino)propyl)benzamide], the GI50 in test [1] (CellTiter-Glo) and in test [2] (CellTiter-Glo) was 500 to 1000 nM each time. Besides, the half-inhibitory concentration (IC50) was 100 to 500 nM against HER2 INS YVMA (biochemical Lance assay), at most 100 nM against EGFR wt, at most 100 nM against EGFR T790ML858R and at most 100 nM with H1975.

Consider `C=CC(=O)Nc1cc(-c2c(-c3cccc(C(=O)NC4CCCCC4)c3)[nH]c3nccc(Cl)c23)ccc1C` [Example 50, 3-(3-(3-acrylamido-4-methylphenyl)-4-chloro-1H-pyrrolo[2,3-b]pyridin-2-yl)-N-cyclohexylbenzamide], for which the GI50 in test [1] (CellTiter-Glo) and in test [2] (CellTiter-Glo) was 1000 to 10000 nM each time. The IC50 on HER2 INS YVMA (biochemical Lance assay) is above 10000 nM; at EGFR wt, 1000 to 100000 nM; against EGFR T790ML858R, 100 to 500 nM; in the test on H1975, 500 to 1000 nM.

Consider `C=CC(=O)Nc1cc(-c2c(-c3cccc(C(=O)N4CCCCCC4)c3)[nH]c3nccc(Cl)c23)ccc1C` [Example 45, N-(5-(2-(3-(azepane-1-carbonyl)phenyl)-4-chloro-1H-pyrrolo[2,3-b]pyridin-3-yl)-2-methylphenyl)acrylamide], for which the GI50 in test [1] (CellTiter-Glo) and in test [2] (CellTiter-Glo) was 1000 to 10000 nM each time. Further, the IC50 was above 10000 nM at HER2 INS YVMA (biochemical Lance assay), 1000 to 100000 nM against EGFR wt, 100 to 500 nM on EGFR T790ML858R and 1000 to 100000 nM in the test with H1975.

As to `C=CC(=O)Nc1cc(-c2c(-c3cccc(C(=O)N4CCN(C)CC4)c3)[nH]c3nccc(Cl)c23)ccc1C` [Example 44, N-(5-(4-chloro-2-(3-(4-methylpiperazine-1-carbonyl)phenyl)-1H-pyrrolo[2,3-b]pyridin-3-yl)-2-methylphenyl)acrylamide 2,2,2-trifluoroacetate], the GI50 in test [1] (CellTiter-Glo) and in test [2] (CellTiter-Glo) was 1000 to 10000 nM each time. In addition, the IC50 was 100 to 500 nM against HER2 INS YVMA (biochemical Lance assay), 100 to 500 nM against EGFR wt, at most 100 nM at EGFR T790ML858R and 100 to 500 nM in the test on H1975.

Consider `C=CC(=O)Nc1cc(-c2c(-c3cccc(C(=O)NC4CC4)c3)[nH]c3nccc(Cl)c23)ccc1C` [Example 49, 3-(3-(3-acrylamido-4-methylphenyl)-4-chloro-1H-pyrrolo[2,3-b]pyridin-2-yl)-N-cyclopropylbenzamide], for which the values for the GI50 in test [1] (CellTiter-Glo) and in test [2] (CellTiter-Glo) were 1000 to 10000 nM and 500 to 1000 nM, respectively. Moreover, the 50% inhibitory concentration (IC50) at HER2 INS YVMA (biochemical Lance assay) is 500 to 1000 nM; against EGFR wt, 100 to 500 nM; at EGFR T790ML858R it was at most 100 nM; in the test with H1975, 100 to 500 nM.

`CCC(=O)Nc1cc(-c2c(-c3ccc(N4CCN(C)CC4)cc3)[nH]c3nccc(Cl)c23)ccc1C` [reference compound]: the results for the GI50 in test [1] and in test [2] were 1310 nM and 754 nM, respectively. Besides, the IC50 on HER2 INS YVMA is 916 nM.

Regarding `C=CC(=O)Nc1cc(-c2c(-c3cccc(N4CCN(C(C)=O)CC4)c3)[nH]c3nccc(Cl)c23)ccc1C` [Example 35, N-(5-(2-(3-(4-acetylpiperazin-1-yl)phenyl)-4-chloro-1H-pyrrolo[2,3-b]pyridin-3-yl)-2-methylphenyl)acrylamide], the GI50 in test [1] (CellTiter-Glo) and in test [2] (CellTiter-Glo) was 500 to 1000 nM each time. Moreover, the IC50 against HER2 INS YVMA (biochemical Lance assay) is 100 to 500 nM; at EGFR wt, at most 100 nM; against EGFR T790ML858R, at most 100 nM; in the test with H1975, at most 100 nM.
